Read-outs that look alike come from different tables or passages of the source.
Columns and labels:
Lyn [1] = biological target: T1, Lyn (Homo sapiens (Human), UniProt P07948); details: read-out: Lyn IC50
DoHH2 = experiment: CellTiter-Glo proliferation/viability assay; assay type: cell-based, human; details: Homo sapiens, read-out: DoHH2 EC50
BTK = BTK (Homo sapiens (Human), UniProt Q06187)
Src [2] = biological target: T2, Src (Homo sapiens (Human), UniProt P12931); experiment: biochemical
Ramos = experiment: CellTiter-Glo proliferation/viability assay; assay type: cell-based, human
Lyn [3] = biological target: T1, Lyn; experiment: biochemical
Src [4] = biological target: T2, Src; details: read-out: Src IC50
[5] = Homo sapiens, Ramos; 48 hrs; read-out: Ramos EC50
[6] = Homo sapiens, Ramos, 48 h; read-out: Ramos EC50

T1 sequence (P07948 whole entry): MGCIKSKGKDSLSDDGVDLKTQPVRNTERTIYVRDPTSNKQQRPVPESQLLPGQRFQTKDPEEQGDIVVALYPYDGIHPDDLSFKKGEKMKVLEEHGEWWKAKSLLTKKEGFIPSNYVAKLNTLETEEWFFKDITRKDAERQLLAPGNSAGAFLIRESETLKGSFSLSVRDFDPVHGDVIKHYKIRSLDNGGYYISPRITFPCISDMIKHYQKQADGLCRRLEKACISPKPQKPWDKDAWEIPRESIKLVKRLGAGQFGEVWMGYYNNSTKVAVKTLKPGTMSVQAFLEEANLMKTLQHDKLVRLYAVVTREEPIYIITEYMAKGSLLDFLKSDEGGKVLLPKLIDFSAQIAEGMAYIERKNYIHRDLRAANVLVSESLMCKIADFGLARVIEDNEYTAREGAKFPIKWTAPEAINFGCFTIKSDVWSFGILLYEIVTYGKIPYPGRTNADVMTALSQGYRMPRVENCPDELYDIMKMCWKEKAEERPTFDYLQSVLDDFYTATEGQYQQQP
Chain of BTK (Q06187 whole entry): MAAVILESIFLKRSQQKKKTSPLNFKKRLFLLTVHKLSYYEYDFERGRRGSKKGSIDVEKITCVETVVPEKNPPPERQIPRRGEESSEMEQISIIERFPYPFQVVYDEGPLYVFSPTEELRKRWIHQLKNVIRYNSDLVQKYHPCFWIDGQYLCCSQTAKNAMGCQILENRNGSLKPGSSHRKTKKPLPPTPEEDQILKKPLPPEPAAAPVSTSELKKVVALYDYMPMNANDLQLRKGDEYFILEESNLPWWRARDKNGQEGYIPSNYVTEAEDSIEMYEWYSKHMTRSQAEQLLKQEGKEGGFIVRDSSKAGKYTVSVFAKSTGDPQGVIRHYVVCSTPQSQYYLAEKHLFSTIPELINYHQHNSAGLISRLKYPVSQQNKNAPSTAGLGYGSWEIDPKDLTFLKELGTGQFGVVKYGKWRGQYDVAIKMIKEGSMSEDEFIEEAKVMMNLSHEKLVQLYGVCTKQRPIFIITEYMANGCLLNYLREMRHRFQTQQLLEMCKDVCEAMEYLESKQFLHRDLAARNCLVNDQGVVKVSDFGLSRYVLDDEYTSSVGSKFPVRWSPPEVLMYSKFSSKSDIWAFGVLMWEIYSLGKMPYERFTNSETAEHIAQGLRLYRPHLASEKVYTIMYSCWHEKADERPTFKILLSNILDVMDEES
T2 sequence (P12931 whole entry, looked up): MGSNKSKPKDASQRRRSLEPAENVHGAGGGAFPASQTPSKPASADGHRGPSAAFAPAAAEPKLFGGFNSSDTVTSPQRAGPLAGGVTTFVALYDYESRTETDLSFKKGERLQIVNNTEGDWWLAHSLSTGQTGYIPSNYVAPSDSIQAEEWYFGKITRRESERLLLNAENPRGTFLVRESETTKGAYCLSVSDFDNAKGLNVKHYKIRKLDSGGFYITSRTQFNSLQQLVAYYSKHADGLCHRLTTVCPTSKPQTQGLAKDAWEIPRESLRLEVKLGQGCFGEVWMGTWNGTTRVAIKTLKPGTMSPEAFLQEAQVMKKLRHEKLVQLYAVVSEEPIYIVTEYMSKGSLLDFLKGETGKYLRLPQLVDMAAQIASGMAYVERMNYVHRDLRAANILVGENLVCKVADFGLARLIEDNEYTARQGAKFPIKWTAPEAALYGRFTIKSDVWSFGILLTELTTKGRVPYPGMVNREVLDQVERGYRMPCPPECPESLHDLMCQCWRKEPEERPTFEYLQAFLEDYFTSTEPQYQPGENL

| Compound | IC50 (Lyn [1]) [nM] | IC50 (BTK) [nM] | IC50 (Src [2]) [nM] | EC50 (Ramos; [5]) [nM] | IC50 (BTK; read-out: BTK IC50) [nM] | IC50 (Lyn [3]) [nM] | IC50 (Src [4]) [nM] | EC50 (Ramos; [6]) [nM] | EC50 (DoHH2; DOHH-2, 48 hrs) [nM] | EC50 (DoHH2; DOHH-2, 48 h) [nM] | EC50 (Ramos; Homo sapiens, Ramos, 48 h, read-out: Ramos EC50) [nM] |
| --- | --- | --- | --- | --- | --- | --- | --- | --- | --- | --- | --- |
| CCN(CC)CCOc1cnc(Nc2cc3c(cn2)cc(-c2ccccc2)c(=O)n3CC)nc1 [Compound 3, 7-[5-(2-Diethylamino-ethoxy)-pyrimidin-2-ylamino]-1-ethyl-3-phenyl-1H-[1,6]naphthyridin-2-one] | > 5000 | 1000 to 5000 | 1000 to 5000 | > 10000 |  |  |  |  | 1000 to 10000 |  |  |
| CCn1c(=O)c(-c2ccccc2)cc2cnc(Nc3ccc(C(=O)N4CCOCC4)cn3)cc21 [Compound 4, 1-Ethyl-7-[5-(morpholine-4-carbonyl)-pyridin-2-ylamino]-3-phenyl-1H-[1,6]naphthyridin-2-one] | < 100 |  | 100 to 1000 | < 1000 | > 5000 |  |  |  | 1000 to 10000 |  |  |
| CCn1c(=O)c(C#CCOC)cc2cnc(Nc3ccc(C)cn3)cc21 [Compound 32] | > 5000 |  | 1000 to 5000 |  | > 5000 |  |  | > 10000 | > 10000 |  |  |
| CCn1c(=O)c(-c2ccccc2Cl)cc2cnc(Nc3ccc(F)cn3)cc21 [Compound 71, 3-(2-chlorophenyl)-1-ethyl-7-(5-fluoropyridin-2-ylamino)-1,6-naphthyridin-2(1H)-one] |  | 1000 to 5000 |  | > 10000 |  | 100 to 1000 | < 100 |  | 1000 to 10000 |  |  |
| CCn1c(=O)c(-c2cc(SC)ccc2F)cc2cnc(Nc3ccc(N(C)C4CCN(C)CC4)cn3)cc21 [Compound 116, 1-ethyl-3-(2-fluoro-5-(methylthio)phenyl)-7-((5-(methyl(1-methylpiperidin-4-yl)amino)pyridin-2-yl)amino)-1,6-naphthyridin-2(1H)-one] |  |  |  |  |  | < 100 |  |  |  | < 1000 | 1000 to 10000 |
| CCn1c(=O)c(-c2c(F)ccc(F)c2O)cc2cnc(Nc3ccc(N(C)C4CCN(C)CC4)cn3)cc21 [Compound 123, 3-(3,6-difluoro-2-hydroxyphenyl)-1-ethyl-7-((5-(methyl(1-methylpiperidin-4-yl)amino)pyridin-2-yl)amino)-1,6-naphthyridin-2(1H)-one] | < 100 |  |  | 1000 to 10000 | < 100 |  | < 100 |  | < 1000 |  |  |
| CCn1c(=O)c(-c2c(C)cc(F)cc2C)cc2cnc(Nc3ccc(N(C)C4CCN(C)CC4)cn3)cc21 [Compound 124, 1-ethyl-3-(4-fluoro-2,6-dimethylphenyl)-7-((5-(methyl(1-methylpiperidin-4-yl)amino)pyridin-2-yl)amino)-1,6-naphthyridin-2(1H)-one] | < 100 |  |  | > 10000 | < 100 |  | < 100 |  | < 1000 |  |  |
| CN(C)CCCn1c(=O)c(-c2c(F)cccc2F)cc2cnc(Nc3ccc(F)cn3)cc21 [Compound 130, 3-(2,6-difluorophenyl)-1-(3-(dimethylamino)propyl)-7-((5-fluoropyridin-2-yl)amino)-1,6-naphthyridin-2(1H)-one] | < 100 |  |  | 1000 to 10000 | < 100 |  | < 100 |  | < 1000 |  |  |
| O=c1c(-c2c(F)cccc2F)cc2cnc(Nc3ccc(F)cn3)cc2n1CCCN1CCOCC1 [Compound 131, 3-(2,6-difluorophenyl)-7-((5-fluoropyridin-2-yl)amino)-1-(3-morpholinopropyl)-1,6-naphthyridin-2(1H)-one] | < 100 | 100 to 1000 |  | > 10000 |  |  | < 100 |  | < 1000 |  |  |
| CN1CCN(CCCn2c(=O)c(-c3c(F)cccc3F)cc3cnc(Nc4ccc(F)cn4)cc32)CC1 [Compound 132, 3-(2,6-difluorophenyl)-7-((5-fluoropyridin-2-yl)amino)-1-(3-(4-methylpiperazin-1-yl)propyl)-1,6-naphthyridin-2(1H)-one] | < 100 |  |  | > 10000 | < 100 |  | < 100 |  | < 1000 |  |  |
| CN1CCC(N(C)c2ccc(Nc3cc4c(cn3)cc(-c3c(F)cccc3F)c(=O)n4C3CCCC3)nc2)CC1 [Compound 139, 1-cyclopentyl-3-(2,6-difluorophenyl)-7-((5-(methyl(1-methylpiperidin-4-yl)amino)pyridin-2-yl)amino)-1,6-naphthyridin-2(1H)-one] | < 100 |  |  |  | < 100 |  | < 100 | 1000 to 10000 | < 1000 |  |  |
| CN1CCC(N(C)c2ccc(Nc3cc4[nH]c(=O)c(-c5c(F)cccc5F)cc4cn3)nc2)CC1 [Compound 140, 3-(2,6-difluorophenyl)-7-((5-(methyl(1-methylpiperidin-4-yl)amino)pyridin-2-yl)amino)-1,6-naphthyridin-2(1H)-one] | < 100 |  |  | 1000 to 10000 | < 100 |  | < 100 |  | < 1000 |  |  |
| O=c1c(-c2c(F)cccc2F)cc2cnc(Nc3ccc(F)cn3)cc2n1[C@H]1CCNC1 [Compound 149, (S)-3-(2,6-difluorophenyl)-7-((5-fluoropyridin-2-yl)amino)-1-(pyrrolidin-3-yl)-1,6-naphthyridin-2(1H)-one] | > 5000 |  | 1000 to 5000 | > 10000 |  |  |  |  | 1000 to 10000 |  |  |

Now from value to molecule, other results behind:

| IC50 (Lyn [1]) [nM] | IC50 (BTK) [nM] | IC50 (Src [2]) [nM] | EC50 (Ramos; [5]) [nM] | IC50 (BTK; read-out: BTK IC50) [nM] | IC50 (Lyn [3]) [nM] | IC50 (Src [4]) [nM] | EC50 (Ramos; [6]) [nM] | Compound | EC50 (DoHH2; DOHH-2, 48 hrs) [nM] | EC50 (DoHH2; DOHH-2, 48 h) [nM] | EC50 (Ramos; Homo sapiens, Ramos, 48 h, read-out: Ramos EC50) [nM] |
| --- | --- | --- | --- | --- | --- | --- | --- | --- | --- | --- | --- |
|  |  |  | 1000 to 10000 | < 100 | 100 to 1000 | < 100 |  | CCN(CC)CCOc1ccc(Nc2cc3c(cn2)cc(-c2ccccc2)c(=O)n3C)nc1 [Compound 15, 7-[5-(2-Diethylamino-ethoxy)-pyridin-2-ylamino]-1-methyl-3-phenyl-1H-[1,6]naphthyridin-2-one] | < 1000 |  |  |
| > 5000 |  | 100 to 1000 | 1000 to 10000 | > 5000 |  |  |  | CC#Cc1cc2cnc(Nc3ccc(C)cn3)cc2n(CC)c1=O [Compound 21] | 1000 to 10000 |  |  |
| > 5000 |  | 100 to 1000 |  | > 5000 |  |  | 1000 to 10000 | CCn1c(=O)c(C2CCCC2)cc2cnc(Nc3ccc(C)cn3)cc21 [Compound 31, 3-Cyclopentyl-1-ethyl-7-(5-methyl-pyridin-2-ylamino)-1H-[1,6]naphthayridin-2-one] | > 10000 |  |  |
|  | 100 to 1000 |  | > 10000 |  | 1000 to 5000 | > 5000 |  | CCn1c(=O)c(C2CCC2)cc2cnc(Nc3ccc(C)cn3)cc21 [Compound 37, 3-Cyclobutyl-1-ethyl-7-(5-methyl-pyridin-2-ylamino)-1H-[1,6]naphthyridin-2-one] | > 10000 |  |  |
|  |  |  |  | > 5000 | 1000 to 5000 | > 5000 | > 10000 | CCn1c(=O)c(-c2cccc(C)c2)cc2cnc(Nc3ccc(C)cn3)cc21 [Compound 41, 1-ethyl-7-(5-methylpyridin-2-ylamino)-3-m-tolyl-1,6-naphthyridin-2(1H)-one] | > 10000 |  |  |
|  |  | 100 to 1000 | > 10000 |  |  |  |  | CCN(CC)CCOc1ccc(Nc2cc3c(cn2)cc(C(C)C)c(=O)n3C)nc1 [Compound 59, 7-[5-(2-Diethylamino-ethoxy)-pyridin-2-ylamino]-3-isopropyl-1-methyl-1H-[1,6]naphthyridin-2-one] | 1000 to 10000 |  |  |
|  | 1000 to 5000 |  | 1000 to 10000 |  | 100 to 1000 | < 100 |  | CCn1c(=O)c(-c2ccccc2)cc2cnc(Nc3ccnc(O)n3)cc21 [Compound 63, 1-Ethyl-7-(2-hydroxy-pyrimidin-4-ylamino)-3-phenyl-1H-[1,6]naphthyridin-2-one] | 1000 to 10000 |  |  |
|  |  |  | > 10000 | > 5000 | 1000 to 5000 | > 5000 |  | CCn1c(=O)c(-c2nccs2)cc2cnc(Nc3ccc(C)cn3)cc21 [Compound 68] | 1000 to 10000 |  |  |
|  |  |  | 1000 to 10000 |  | 1000 to 5000 | < 100 |  | CCN(CC)CCOc1ccc(Nc2cc3c(cn2)cc(-c2ccccc2)c(=O)n3C2CCCCC2)nc1 [Compound 74, 1-cyclohexyl-7-(5-(2-(diethylamino)ethoxy)pyridin-2-ylamino)-3-phenyl-1,6-naphthyridin-2(1H)-one] | 1000 to 10000 |  |  |
|  |  |  | 1000 to 10000 | < 100 | 100 to 1000 | < 100 |  | CCN(CC)CCOc1ccc(Nc2cc3c(cn2)cc(-c2c(F)cc(Cl)cc2F)c(=O)n3CC)nc1 [Compound 98, 3-(4-chloro-2,6-difluorophenyl)-7-((5-(2-(diethylamino)ethoxy)pyridin-2-yl)amino)-1-ethyl-1,6-naphthyridin-2(1H)-one] | 1000 to 10000 |  |  |
|  |  |  | > 10000 | > 5000 | 100 to 1000 | < 100 |  | CCN(CC)CCOc1ccc(Nc2cc3c(cn2)cc(-c2cccnc2)c(=O)n3CC)nc1 [Compound 103, 7-((5-(2-(diethylamino)ethoxy)pyridin-2-yl)amino)-1-ethyl-3-(pyridin-3-yl)-1,6-naphthyridin-2(1H)-one] | 1000 to 10000 |  |  |
|  | 1000 to 5000 |  | 1000 to 10000 |  | 100 to 1000 | < 100 |  | CCN(CC)CCOc1ccc(Nc2cc3c(cn2)cc(-c2cccc(SC)c2)c(=O)n3CC)nc1 [Compound 105, 7-((5-(2-(diethylamino)ethoxy)pyridin-2-yl)amino)-1-ethyl-3-(3-(methylthio)phenyl)-1,6-naphthyridin-2(1H)-one] | 1000 to 10000 |  |  |
|  |  |  | > 10000 | < 100 | 100 to 1000 | > 5000 |  | CCN(CC)CCOc1ccc(Nc2cc3c(cn2)cc(-c2ccccc2Cl)c(=O)n3CC)nc1 [Compound 106, 3-(2-chlorophenyl)-7-((5-(2-(diethylamino)-ethoxy)pyridin-2-yl)amino)-1-ethyl-1,6-naphthyridin-2(1H)-one] | < 1000 |  |  |
